Experimental data taken from ChEMBL document CHEMBL4420076, “Amylin and calcitonin receptor agonist” (2017).
Numbered stars: 1 amine (or outer) side, 2 acyl side, 3 side chain; on linkers, the order of the positions; unused ones are H or OH. Peptide text beside a SMILES is read from it. * marks the point of attachment. C20 diacid = O=C(O)CCCCCCCCCCCCCCCCCCC(=O)*; γGlu = O=C(O)[C@H](CCC(=O)[*:2])N[*:1]; C14 diacid = O=C(O)CCCCCCCCCCCCC(=O)*

Columns and labels:
[1] = test system: Rattus norvegicus; assay: Reduction in food intake in Sprague-Dawley rat at 3 nmol/kg measured 0 to 24 hrs post dose relative to control; format: functional; design: scale not given: the % may be the effect or the level left
[2] = test system: Rattus norvegicus; assay: Reduction in food intake in Sprague-Dawley rat at 3 nmol/kg measured 24 to 48 hrs post dose relative to control; format: functional; design: scale not given: the % may be the effect or the level left
[3] = molecular target: T1, Amylin receptor AMY3; CALCR/RAMP3 (Homo sapiens, UniProt O60896+P30988); assay: Agonist activity at human amylin receptor expressed in BHK570 cells co-expressing RAMP3 assessed as increase in intracellular cAMP concentration incubated for 3 hrs in absence of albumin by CRE luciferase reporter gene assay; format: functional, cell-based
T1 sequence (P30988 whole entry): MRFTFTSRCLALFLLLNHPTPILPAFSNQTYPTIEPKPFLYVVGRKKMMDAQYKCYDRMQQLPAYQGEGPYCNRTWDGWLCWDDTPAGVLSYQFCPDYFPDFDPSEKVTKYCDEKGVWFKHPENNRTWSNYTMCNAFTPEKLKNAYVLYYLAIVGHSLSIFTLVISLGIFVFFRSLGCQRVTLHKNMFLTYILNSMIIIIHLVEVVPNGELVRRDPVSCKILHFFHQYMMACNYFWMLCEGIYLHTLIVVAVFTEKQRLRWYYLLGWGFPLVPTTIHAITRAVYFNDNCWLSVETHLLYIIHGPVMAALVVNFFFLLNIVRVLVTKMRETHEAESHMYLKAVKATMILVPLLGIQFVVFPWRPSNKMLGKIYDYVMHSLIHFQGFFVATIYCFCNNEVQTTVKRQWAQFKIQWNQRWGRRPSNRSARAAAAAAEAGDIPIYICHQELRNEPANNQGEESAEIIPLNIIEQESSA
T1 sequence (O60896 whole entry): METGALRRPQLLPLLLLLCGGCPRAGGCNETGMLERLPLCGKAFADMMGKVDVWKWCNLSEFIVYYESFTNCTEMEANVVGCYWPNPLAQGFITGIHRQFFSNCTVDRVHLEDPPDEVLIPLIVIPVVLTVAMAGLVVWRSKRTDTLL

[4] = molecular target: T2, Calcitonin receptor (Homo sapiens, UniProt P30988); assay: Agonist activity at human calcitonin receptor expressed in BHK570 cells assessed as increase in intracellular cAMP concentration incubated for 3 hrs in absence of albumin by CRE luciferase reporter gene assay; format: functional, cell-based
T2 sequence (P30988 whole entry): T1 sequence (P30988 whole entry)

[5] = molecular target: T1, Amylin receptor AMY3; CALCR/RAMP3; assay: Agonist activity at human amylin receptor expressed in BHK570 cells co-expressing RAMP3 assessed as increase in intracellular cAMP concentration incubated for 3 hrs in presence of 10% FBS by CRE luciferase reporter gene assay; format: functional, cell-based
[6] = molecular target: T2, Calcitonin receptor; assay: Agonist activity at human calcitonin receptor expressed in BHK570 cells assessed as increase in intracellular cAMP concentration incubated for 3 hrs in presence of 10% FBS by CRE luciferase reporter gene assay; format: functional, cell-based
[7] = Stability in pH 7.5 buffer assessed as lag time for fibril formation at 1 uM by Thioflavin T based fluorescence assay; format: physicochemical; conditions: pH 7.5, 1 µM
[8] = Stability in pH 7.5 buffer assessed as compound recovery at 1 uM by Thioflavin T based fluorescence assay; format: physicochemical; conditions: read-out: Drug recovery
[9] = Solubility in 100 mM glycylglycine buffer at pH 3.0 incubated for 18 hrs by UPLC analysis; format: physicochemical
[10] = Solubility in 100 mM glycylglycine buffer at pH 4.0 incubated for 18 hrs by UPLC analysis; format: physicochemical
[11] = Solubility in 100 mM bistrispropane buffer at pH 6.0 incubated for 18 hrs by UPLC analysis; format: physicochemical
[12] = Solubility in 100 mM bistrispropane buffer at pH 6.5 incubated for 18 hrs by UPLC analysis; format: physicochemical
[13] = Solubility in 100 mM bistrispropane buffer at pH 7.0 incubated for 18 hrs by UPLC analysis; format: physicochemical
[14] = Solubility in 100 mM bistrispropane buffer at pH 7.5 incubated for 18 hrs by UPLC analysis; format: physicochemical
[15] = Solubility in 100 mM bistrispropane buffer at pH 8.0 incubated for 18 hrs by UPLC analysis; format: physicochemical
[16] = molecular target: T3, Amylin receptor AMY3; CALCR/RAMP3 (Rattus norvegicus, UniProt P32214+Q9JJ73); assay: Displacement of [125I]-labeled rat amylin from rat amylin receptor expressed in BHK tkts13 cell membranes co-expressing RAMP3 incubated for 120 mins by scintillation proximity assay
T3 sequence (P32214 whole entry): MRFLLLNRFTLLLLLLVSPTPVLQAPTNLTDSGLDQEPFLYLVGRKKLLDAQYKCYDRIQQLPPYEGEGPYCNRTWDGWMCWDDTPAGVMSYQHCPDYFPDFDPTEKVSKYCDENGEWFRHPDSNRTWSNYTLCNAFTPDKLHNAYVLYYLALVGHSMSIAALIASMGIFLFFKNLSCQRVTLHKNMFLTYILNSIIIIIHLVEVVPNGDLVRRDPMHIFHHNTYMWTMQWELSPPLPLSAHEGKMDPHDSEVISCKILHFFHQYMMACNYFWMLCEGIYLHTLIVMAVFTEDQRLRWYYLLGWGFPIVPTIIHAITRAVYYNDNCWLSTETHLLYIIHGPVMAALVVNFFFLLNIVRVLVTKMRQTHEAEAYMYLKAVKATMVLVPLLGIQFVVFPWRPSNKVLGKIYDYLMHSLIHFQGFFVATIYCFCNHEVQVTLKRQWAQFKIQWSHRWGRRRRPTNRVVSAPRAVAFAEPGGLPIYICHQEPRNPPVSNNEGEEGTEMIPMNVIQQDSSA
T3 sequence (Q9JJ73 whole entry): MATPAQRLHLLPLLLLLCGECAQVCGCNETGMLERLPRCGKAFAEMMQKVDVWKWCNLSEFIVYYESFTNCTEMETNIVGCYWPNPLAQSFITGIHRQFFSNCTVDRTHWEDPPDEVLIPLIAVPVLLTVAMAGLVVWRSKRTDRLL

[17] = molecular target: T1, Amylin receptor AMY3; CALCR/RAMP3; assay: Displacement of [125I]-labeled rat amylin from human amylin receptor expressed in BHK tkts13 whole cells co-expressing RAMP3 incubated for 60 mins by scintillation proximity assay; format: cell-based
[18] = Solubility in 100 mM glycylglycine buffer at pH 5.0 incubated for 18 hrs by UPLC analysis; format: physicochemical
[19] = molecular target: T2, Calcitonin receptor; assay: Displacement of [125I]-labeled human calcitonin from human calcitonin receptor expressed in BHK tkts13 cell membranes incubated for 1 hr by scintillation proximity assay

Row | SMILES | Activity [1] | Activity [2] | EC50 [3] | EC50 [4] | EC50 [5] | EC50 [6] | Time [7] | remaining at 1 µM [8] | solubility at 18 h [9] | solubility at 18 h [10] | solubility at 18 h [11] | solubility at 18 h [12] | solubility at 18 h [13] | solubility at 18 h [14] | solubility at 18 h [15] | IC50 [16] | IC50 [17] | solubility at 18 h [18] | IC50 [19]
1 | CC(C)C[C@H](NC(=O)CNC(=O)[C@H](CO)NC(=O)[C@H](C)NC(=O)COCCOCCNC(=O)COCCOCCNC(=O)CC[C@H](NC(=O)CCCCCCCCCCCCCCCCC(=O)O)C(=O)O)C(=O)N[C@@H](CO)C(=O)N[C@H](C(=O)N[C@@H](C)C(=O)N[C@H](C(=O)N[C@@H](CC(C)C)C(=O)NCC(=O)N[C@@H](CCCNC(=N)N)C(=O)N[C@@H](CC(C)C)C(=O)N[C@@H](CO)C(=O)N[C@@H](CCC(N)=O)C(=O)N[C@@H](CCC(=O)O)C(=O)N[C@@H](CC(C)C)C(=O)N[C@@H](Cc1cnc[nH]1)C(=O)N[C@@H](CCC(=O)O)C(=O)N[C@@H](CC(C)C)C(=O)N[C@@H](CCC(N)=O)C(=O)N[C@H](C(=O)N[C@@H](Cc1ccc(O)cc1)C(=O)N1CCC[C@H]1C(=O)N[C@@H](CCCNC(=N)N)C(=O)N[C@H](C(=O)N[C@@H](CCC(=O)O)C(=O)N[C@H](C(=O)NCC(=O)N[C@@H](CO)C(=O)NCC(=O)N[C@H](C(=O)N[C@@H](Cc1ccc(O)cc1)C(N)=O)[C@@H](C)O)[C@@H](C)O)[C@@H](C)O)[C@@H](C)O)C(C)C)[C@@H](C)O | 0% | 0% | 0.05 nM | 0.022 nM | 0.08 nM | 0.038 nM | > 45 h | 100% | ≥ 200 µM | ≥ 200 µM | ≥ 200 µM | ≥ 200 µM | ≥ 200 µM | ≥ 200 µM | ≥ 200 µM | 0.357 nM | 0.801 nM | – | –
2 | CC(C)C[C@H](NC(=O)[C@H](C)NC(=O)[C@H](C)NC(=O)[C@@H](NC(=O)[C@H](CO)NC(=O)[C@H](CC(C)C)NC(=O)[C@H](CCC(=O)O)NC(=O)[C@H](CO)NC(=O)[C@H](C)NC(=O)CCCCCCCCCCCCC(=O)O)[C@@H](C)O)C(=O)NCC(=O)N[C@@H](CCCNC(=N)N)C(=O)N[C@@H](CC(C)C)C(=O)N[C@@H](CO)C(=O)N[C@@H](C)C(=O)N[C@@H](CCC(=O)O)C(=O)N[C@@H](CC(C)C)C(=O)N[C@@H](Cc1cnc[nH]1)C(=O)N[C@@H](CCC(=O)O)C(=O)N[C@@H](CC(C)C)C(=O)N[C@@H](C)C(=O)N[C@H](C(=O)N[C@@H](CC(C)C)C(=O)N1CCC[C@H]1C(=O)N[C@@H](CCCNC(=N)N)C(=O)N[C@H](C(=O)N[C@@H](CCC(=O)O)C(=O)N[C@H](C(=O)NCC(=O)N[C@@H](CO)C(=O)NCC(=O)N[C@@H](CO)C(=O)N1CCC[C@H]1C(N)=O)[C@@H](C)O)[C@@H](C)O)[C@@H](C)O ({C14 diacid}-ASELSTAALGRLSAELHELATLPRTETGSGSP-NH2) | – | – | 0.007 nM | 0.005 nM | 0.006 nM | 0.004 nM | – | – | ≥ 200 µM | ≥ 200 µM | ≥ 200 µM | ≥ 200 µM | ≥ 200 µM | ≥ 200 µM | ≥ 200 µM | – | – | ≥ 200 µM | 0.14 nM
3 | CC(C)C[C@H](NC(=O)CNC(=O)[C@H](CO)NC(=O)[C@H](C)NC(=O)CC[C@H](NC(=O)CCCCCCCCCCCCCCCCCCC(=O)O)C(=O)O)C(=O)N[C@@H](CO)C(=O)N[C@H](C(=O)N[C@@H](C)C(=O)N[C@H](C(=O)N[C@@H](CC(C)C)C(=O)NCC(=O)N[C@@H](CCCNC(=N)N)C(=O)N[C@@H](CC(C)C)C(=O)N[C@@H](CO)C(=O)N[C@@H](CCC(N)=O)C(=O)N[C@@H](CCC(=O)O)C(=O)N[C@@H](CC(C)C)C(=O)N[C@@H](Cc1cnc[nH]1)C(=O)N[C@@H](CCC(=O)O)C(=O)N[C@@H](CC(C)C)C(=O)N[C@@H](CCC(N)=O)C(=O)N[C@H](C(=O)N[C@@H](Cc1ccc(O)cc1)C(=O)N1CCC[C@H]1C(=O)N1CCC[C@H]1C(=O)N[C@H](C(=O)N[C@@H](CCC(=O)O)C(=O)N[C@H](C(=O)NCC(=O)N[C@@H](CO)C(=O)NCC(=O)N[C@H](C(=O)N[C@@H](Cc1ccc(O)cc1)C(N)=O)[C@@H](C)O)[C@@H](C)O)[C@@H](C)O)[C@@H](C)O)[C@@H](C)O)[C@@H](C)O ({C20 diacid-γGlu}-ASGLSTATLGRLSQELHELQTYPPTETGSGTY-NH2) | – | – | 0.023 nM | 0.019 nM | – | 0.077 nM | – | – | ≥ 200 µM | – | ≥ 200 µM | ≥ 200 µM | ≥ 200 µM | ≥ 200 µM | ≥ 200 µM | 0.098 nM | 0.116 nM | ≥ 200 µM | 0.053 nM
4 | CC(C)C[C@H](NC(=O)CNC(=O)[C@H](CO)NC(=O)[C@H](C)NC(=O)CC[C@H](NC(=O)CCCCCCCCCCCCCCCCCCC(=O)O)C(=O)O)C(=O)N[C@@H](CO)C(=O)N[C@H](C(=O)N[C@@H](CC(C)C)C(=O)N[C@H](C(=O)N[C@@H](CC(C)C)C(=O)NCC(=O)N[C@@H](CCCNC(=N)N)C(=O)N[C@@H](CC(C)C)C(=O)N[C@@H](CO)C(=O)N[C@@H](CCC(N)=O)C(=O)N[C@@H](CCC(=O)O)C(=O)N[C@@H](CC(C)C)C(=O)N[C@@H](Cc1cnc[nH]1)C(=O)N[C@@H](CCC(=O)O)C(=O)N[C@@H](CC(C)C)C(=O)N[C@@H](CCC(N)=O)C(=O)N[C@H](C(=O)N[C@@H](Cc1ccc(O)cc1)C(=O)N1CCC[C@H]1C(=O)N[C@@H](CCCNC(=N)N)C(=O)N[C@H](C(=O)N[C@@H](CCC(=O)O)C(=O)N[C@H](C(=O)NCC(=O)N[C@@H](CO)C(=O)N[C@@H](CCC(N)=O)C(=O)N[C@H](C(=O)N[C@@H](Cc1ccc(O)cc1)C(N)=O)[C@@H](C)O)[C@@H](C)O)[C@@H](C)O)[C@@H](C)O)C(C)C)[C@@H](C)O ({C20 diacid-γGlu}-ASGLSTLVLGRLSQELHELQTYPRTETGSQTY-NH2) | 34% | 24% | 0.052 nM | 0.04 nM | – | 0.142 nM | 8.4 h | 90% | ≥ 200 µM | – | – | ≥ 200 µM | ≥ 200 µM | ≥ 200 µM | ≥ 200 µM | 0.091 nM | 1.48 nM | – | –
